The term IC50 denotes the concentration needed to halve the response being measured.

In assay [1] the target is T1, NLRP3 inflammasome (Homo sapiens, UniProt Q96P20). In words: NLRP3 inflammasome activation assay in PBMCs, IL-1β release (ELISA / HTRF). It counts as cell-based. Conditions: LPS primed. Also noted: were freshly isolated from human peripheral blood from healthy donors; StemCells Technologies; host or cells: primary human PBMCs, LPS-primed, nigericin-stimulated. Here is the method:
Some of the following assays were used to determine the inhibitory activity of the compounds on the NLRP3 inflammasome using a common inflammasome activation stimuli—nigericin.
Human peripheral blood mononuclear cells (PBMCs), consisting of lymphocytes (T, B and NK cells), monocytes and dendritic cells, were freshly isolated from human peripheral blood from healthy donors. Cells were obtained through an IRB approved donor program by iXCells Biotechnologies where all the donors were tested for bacterial and viral infections. Cells were purified from peripheral blood using ficoll gradient centrifugation.
Fresh or cryopreserved PMBCs were seeded in V-bottom 96-well plate at 0.5-1×10^5 cells per well and incubated overnight at 37° C. with 5% CO2 in RPMI 1640 medium with GlutaMAX supplement, 4.5 g/L D-glucose, 10% Fetal Bovine Serum (FBS), […] Sodium Pyruvate, 1% Penicillin/Streptomycin, 10 mM HEPES and 0.05 mM of β-mercaptoethanol. Freshly isolated or cryopreserved KCs cells were seeded in flat-bottom 96-well plates at 0.6-1.5×10^5 cells/well and incubated overnight at 37° C. 5% CO2 in RPMI 1640 Medium with GlutaMAX supplement, FBS, 1% Penicillin/Streptomycin and 10 mM HEPES. The following day, the cells were primed with 100 ng/mL of lipopolysaccharides (LPS; Sigma Aldrich) in FBS-free RPMI 1640 for 3 h. After the priming step, the media was removed and PBMCs were pre-incubated with serial concentrations of test compounds (0.00017-10 uM) or vehicle (DMSO) for 30 min in FBS-free media prior to addition of the NLRP3 activator. Cells were then stimulated with 10 uM Nigericin (Sigma Aldrich; InvivoGen) for 1.5 h. Plates were centrifuged at 1,500 rpm for 3 minutes to pellet cells and supernatant was transferred into new plates for subsequent experiments.
For ELISA assays cells were seeded into 96-well plates. Post study, supernatants were removed and the levels of mature IL-1β, IL18 and TNFα (Quantikine ELISA, R&D systems) were measured in cell conditioned media by ELISA according to manufacturer's instructions.
Human frozen PBMCs were purchased from StemCells Technologies. Cells were rapidly thawed in 37° C. water bath and resuspended in fresh assay media consisting of RPMI 1640 Medium containing 1% sodium pyruvate, 10 mM HEPES, 2.5 g/L glucose and 55 μM 2-Mercaptoethanol. Cell density was adjusted to 8.1×10^5 cells/mL. Cells were primed by adding lipopolysaccharide (Invivogen Ultrapure lipopolysaccharide from E. coli, tlrl-3pelps) at a final concentration of 100 ng/mL in cell suspension. 37 μL of cell suspension with LPS was seeded per well of a 384 well plate and incubated for 3 hours at 37° C. and 5% CO2. After priming, PBMCs were preincubated with serially diluted test compounds with starting concentration of 40 μM followed by 2-fold dilution for a 20-point curve or vehicle (DMSO) for 30 min in assay media at 37° C. and 5% CO2. Cells were then stimulated with 10 μM nigericin (Invivogen, tlrl-nig-5) for 90 min at 37° C. and 5% CO2 to activate NLRP3 dependent inflammasome pathway and IL-1β release in cell culture supernatant. Cells were centrifuged at 1200 RPM for 1 min and 40 μL of supernatant was transferred into fresh plates and stored at −80° C. until IL-1β analysis.
16 μL of supernatant was added to white 384 well HTRF plates, followed by addition of 4 μL of HTRF cocktail in each well. Plates were quickly centrifuged, sealed and incubated overnight at room temperature. Next day, HTRF signal was read on a Pherastar and ratio of 665/620 was calculated based on manufacturer's protocol to obtain concentration of IL-1β in cell culture supernatant.
On the technique in general: In an ELISA, binding on a coated surface is turned into a signal by an enzyme label.

The target of assay [2] is T1, NLRP3 inflammasome. In words: THP-1 ASC-GFP speck assay. It counts as cell-based. Also on record: host or cells: THP-1 ASC-GFP cells, PMA-differentiated, LPS-primed, nigericin-stimulated. Particulars: THP-1 ASC-GFP cells, PMA differentiated, LPS primed, 10 μM nigericin; read-out: THP1 ASC Speck IC50. On the procedure:
THP-1 ASC-GFP cell line was purchased from Invivogen, San Diego, for inflammasome activation assay. THP-1 ASC-GFP cells stably express a 37.6 kDa ASC::GFP fusion protein that enables monitoring of spec formation by microscopy after activation of NLRP3 dependent inflammasome pathway. Cells were maintained at a density of 600,000 cells/mL in growth media consisting of RPMI 1640, 2 mM L-glutamine, 25 mM HEPES and 10% heat inactivated fetal bovine serum at 37° C. and 5% CO2. Cells were passaged every 3-4 days and used for assays for up to 20 passages.
THP-1 ASC-GFP cells were collected by centrifuging cells at 800 RPM for 5 minutes. Cell culture supernatant was removed and cells were re-suspended in fresh media at density of 1×10^6 cells/mL in assay media consisting of RPMI 1640, 2 mM L-glutamine, 25 mM HEPES and 10% heat inactivated fetal bovine serum. Phorbol 12-myristate 13-acetate (PMA) (Invivogen, tlrl-pma) was added to the cell suspension at a final concentration of 500 ng/ml and mixed thoroughly. 40,000 cells were added per well of a 384 well plate and differentiated into macrophages overnight at 37° C. and 5% CO2. Cells were primed with 1 μg/mL of lipopolysaccharide (Invivogen Ultrapure lipopolysaccharide from E. coli, tlrl-3pelps) in assay media for 3 hours at 37° C. and 5% CO2. After priming, media was removed and THP-1 ASC-GFP cells were preincubated with serially diluted test compounds with starting concentration of 40 μM followed by 2-fold dilution for a 20-point curve or vehicle (DMSO) for 30 min in assay media at 37° C. and 5% CO2. Cells were then stimulated with 10 μM nigericin (Invivogen, tlrl-nig-5) for 90 min at 37° C. and 5% CO2 to activate NLRP3 dependent inflammasome pathway and spec formation. After stimulation, cells were fixed with 4.8% paraformaldehyde (Electron Microscopy Sciences #15710-S) and incubated at room temperature for 15 min. Cells were then washed 3-times with 100 μL of phosphate buffered saline and permeabilized in the presence of premeablization/block buffer for 20 min at room temperature. Cells were then washed 3-times with 100 μL phosphate buffered saline and incubated for 1 hr at room temperature in the presence of hoechst. After staining with Hoechst, cells were washed 3-times with 100 μL phosphate buffered saline and imaged for ASC spec formation.
THP-1 ASC-GFP cells were imaged in 488 and Hoechst channels. Hoechst channel was used for cell count and 488 channel was used to identify number of GFP ASC specks in imaged fields. Percentage of cells with a spec was calculated by dividing the number of GFP positive spots by total number of cells.

The mark [3] stands for this setting: 10 uM nigericin, read-out: PBMC IL-1 β IC50.
Setting [4] is: 10 μM nigericin, read-out: PBMC IL-1β IC50.

T1 sequence (Q96P20 whole entry): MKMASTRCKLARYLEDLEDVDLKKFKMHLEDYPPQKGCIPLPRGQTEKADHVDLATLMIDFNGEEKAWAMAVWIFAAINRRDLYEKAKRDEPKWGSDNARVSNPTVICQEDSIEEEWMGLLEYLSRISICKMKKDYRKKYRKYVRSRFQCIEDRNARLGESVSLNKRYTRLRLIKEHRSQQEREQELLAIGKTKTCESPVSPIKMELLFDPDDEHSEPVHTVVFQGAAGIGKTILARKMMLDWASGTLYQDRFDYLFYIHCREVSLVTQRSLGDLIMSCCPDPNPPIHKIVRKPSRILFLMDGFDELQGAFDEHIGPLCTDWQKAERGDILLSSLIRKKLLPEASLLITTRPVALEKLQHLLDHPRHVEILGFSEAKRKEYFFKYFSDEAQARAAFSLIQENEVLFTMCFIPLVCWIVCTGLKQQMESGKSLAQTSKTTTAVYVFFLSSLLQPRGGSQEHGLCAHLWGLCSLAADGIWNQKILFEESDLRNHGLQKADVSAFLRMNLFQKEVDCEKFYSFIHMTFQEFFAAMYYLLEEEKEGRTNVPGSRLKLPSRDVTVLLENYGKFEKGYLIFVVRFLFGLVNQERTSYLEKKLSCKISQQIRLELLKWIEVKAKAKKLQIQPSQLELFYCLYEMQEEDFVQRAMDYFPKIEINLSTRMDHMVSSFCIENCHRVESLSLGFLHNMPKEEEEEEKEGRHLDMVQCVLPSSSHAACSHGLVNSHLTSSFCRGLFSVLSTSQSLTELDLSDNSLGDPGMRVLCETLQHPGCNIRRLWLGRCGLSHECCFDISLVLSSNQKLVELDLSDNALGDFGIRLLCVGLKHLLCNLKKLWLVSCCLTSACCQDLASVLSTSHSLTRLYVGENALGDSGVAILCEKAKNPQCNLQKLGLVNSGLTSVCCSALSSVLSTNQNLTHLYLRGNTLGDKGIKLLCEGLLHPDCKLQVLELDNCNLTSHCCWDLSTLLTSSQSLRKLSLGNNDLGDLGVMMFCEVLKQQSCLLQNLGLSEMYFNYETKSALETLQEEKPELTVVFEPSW

On to `CN[C@@H]1COc2c(S(=N)(=O)NC(=O)Nc3c4c(cc5c3CCC5)CCC4)cnn2C1` (stereo partly drawn) [drawing 673], for which the half-inhibitory concentration (IC50) in assay [1] (setting [3]) is 100 to 1000 nM.

As to `CNCCO[C@@H]1COc2c(S(N)(=O)=NC(=O)Nc3c4c(cc5c3CCC5)CCC4)cnn2C1` (single isomer, unassigned) [Example 57], the IC50 in assay [1] (setting [4]) was found to be 1670 nM.

Consider `NS(=O)(=NC(=O)Nc1c2c(cc3c1CCC3)CCC2)c1cnn2c1CCCC2` (racemic) [Example 60, N′-((1,2,3,5,6,7-hexahydro-s-indacen-4-yl)carbamoyl)-4,5,6,7-tetrahydropyrazolo[1,5-a]pyridine-3-sulfonimidamide], for which the IC50 in assay [1] (setting [4]) is 3640 nM.

`NS(=O)(=NC(=O)Nc1c2c(c(F)c3c1CCC3)CCC2)c1cnn2c1OCC(NCCF)C2` (single isomer, unassigned) [Example 46]: the values for the IC50 in assay [2] and in assay [1] (setting [4]) were 81 nM and 7 nM, respectively.

On to `COC1CN(C2COc3c(S(N)(=O)=NC(=O)Nc4c5c(c(F)c6c4CCC6)CCC5)cnn3C2)C1` (single isomer, unassigned) [Example 43], for which the IC50 in assay [2] amounted to 1900 nM; in assay [1] (setting [4]), 430 nM.

In the case of `COc1cc(C(C)C)c(NC(=O)N=S(N)(=O)c2cnn3c2OCC(OC)C3)c(C(C)C)n1` (single isomer, unassigned) [Example 52], the IC50 in assay [2] is over 20000 nM; in assay [1] (setting [4]), 15100 nM.

On to `NC1COc2c(S(N)(=O)=NC(=O)Nc3c4c(cc5c3CCC5)CCC4)cnn2C1` (single isomer, unassigned) [Example 58], for which the values for the IC50 in assay [2] and in assay [1] (setting [4]) were 5500 nM and over 10000 nM, respectively.

For the compound `CN(C)[C@@H]1COc2c([S@](N)(=O)=NC(=O)Nc3c4c(c(F)c5c3CCC5)CCC4)cnn2C1` (single isomer, unassigned) [Example 44], the IC50 was found to be 450 nM in assay [2] and 86 nM in assay [1] (setting [4]).

Consider `CC1CCOc2c(S(N)(=O)=NC(=O)Nc3c4c(cc5c3CCC5)CCC4)cnn2C1` (single isomer, unassigned) [Example 67], for which the IC50 was 1400 nM in assay [2] and 220 nM in assay [1] (setting [4]).

Regarding `Cn1ccc(S(=O)(=NC(=O)Nc2c3c(cc4c2CCC4)CCC3)NCc2ccccc2)n1` (stereo not drawn) [Example 11, N′-benzyl-N-((1,2,3,5,6,7-hexahydro-s-indacen-4-yl)carbamoyl)-1-methyl-1H-pyrazole-3-sulfonimidamide], the IC50 in assay [1] (setting [4]) is over 10000 nM.

Regarding `COc1cc(C(C)C)c(NC(=O)N=S(N)(=O)c2cnn3c2OC[C@@H](N2CC(OC)C2)C3)c(C(C)C)n1` (single isomer, unassigned) [Example 49], the half-inhibitory concentration (IC50) in assay [2] was found to be 400 nM; in assay [1] (setting [4]), 490 nM.

Turning to `CC1CCOc2c(S(N)(=O)=NC(=O)Nc3c4c(cc5c3CCC5)CCC4)cnn2C1` (single isomer, unassigned) [Example 66], the IC50 in assay [2] and in assay [1] (setting [4]) was over 20000 nM each time.

For the compound `COCCNC1COc2c(S(N)(=O)=NC(=O)Nc3c4c(cc5c3CCC5)CCC4)cnn2C1` (single isomer, unassigned) [Example 55], the IC50 in assay [2] was 7200 nM; in assay [1] (setting [4]) it was over 10000 nM.

On to `COc1cc(C(C)C)c(NC(=O)N=S(N)(=O)c2cnn3c2OCC(N2CC(OC)C2)C3)c(C(C)C)n1` (single isomer, unassigned) [Example 48], for which, in assay [1] (setting [4]), the IC50 is over 10000 nM.

For `Cn1ccc(S(=O)(=NC(=O)Nc2c3c(cc4c2CCC4)CCC3)NCc2ccccc2)n1` (stereo not drawn) [drawing 659], in assay [1] (setting [3]), the IC50 is over 10000 nM.

With `CC(=O)NS(=O)(=NC(=O)Nc1c2c(c(F)c3c1CCC3)CCC2)c1cnn2c1OCCC2` (single isomer, unassigned) [Example 95], the IC50 in assay [1] (setting [4]) came out at 2230 nM.

As for `NS(=O)(=NC(=O)Nc1c2c(cc3c1CCC3)CCC2)c1cnn2c1COCCC2` (single isomer, unassigned) [Example 62], the IC50 in assay [2] worked out at 920 nM.

`NS(=O)(=NC(=O)Nc1c2c(cc3c1CCC3)CCC2)c1cnn2c1NCCC2` (single isomer, unassigned) [Example 72]: the IC50 in assay [2] was 2500 nM.

With `COc1cc(-c2ccc3c(c2NC(=O)N=S(N)(=O)c2cnn4c2OCCC4)CCO3)ccn1` (single isomer, unassigned) [Example 157], the IC50 in assay [2] was 710 nM.

In the case of `CC1(C)COc2c(S(N)(=O)=NC(=O)Nc3c4c(cc5c3CCC5)CCC4)cnn2C1` (single isomer, unassigned) [Example 80], the IC50 in assay [2] is 4500 nM.

With `CC1CCc2cc3c(c(NC(=O)N=S(N)(=O)c4cnn5c4OCC(C)(C)C5)c21)CCC3` (single isomer, unassigned) [Example 138], the half-maximal inhibitory concentration (IC50) in assay [2] was determined as 790 nM.

`CC1CCn2ncc(S(N)(=O)=NC(=O)Nc3c4c(cc5c3CCC5)CCC4)c2OC1` (single isomer, unassigned) [Example 75]: in assay [2], the IC50 amounted to 15000 nM.

As for `CNC1COc2c(S(N)(=O)=NC(=O)Nc3c4c(c(F)c5c3CCC5)CCC4)cnn2C1` (single isomer, unassigned) [Example 82], the IC50 in assay [2] was found to be 270 nM.

`CC1(C)COc2c(S(N)(=O)=NC(=O)Nc3c4c(cc5c3CC(F)C5)CCC4)cnn2C1` (single isomer, unassigned) [Example 153]: the half-maximal inhibitory concentration (IC50) in assay [2] stood at 1400 nM.

On to `CN1CCCn2ncc(S(N)(=O)=NC(=O)Nc3c4c(cc5c3CCC5)CCC4)c21` (single isomer, unassigned) [Example 108], for which the IC50 in assay [2] was over 20000 nM.

On to `CNCc1cc(C(C)C)c(NC(=O)N=S(N)(=O)c2cnn3c2OCCC3)c(C(C)C)n1` (single isomer, unassigned) [Example 85], for which the IC50 in assay [2] is over 20000 nM.

With `CCn1nc(C(C)C)c(NC(=O)N=S(N)(=O)c2cnn3c2OCCC3)c1C(C)C` (single isomer, unassigned) [Example 98], the IC50 in assay [2] is over 20000 nM.
